Data on 14 molecules can be found in PMC8773473, “Lithocholic Acid Amides as Potent Vitamin D Receptor Agonists” (Biomolecules, 2022).

Like-named read-outs stand apart in the source and are kept apart here.

One series deals with HL-60 cells. Put plainly: HL-60 cell differentiation-inducing assay (NBT reduction). The settings on record: for EC50: Homo sapiens, HL-60, 96 h, read-out: HL-60 Assay EC50. In kind it is cell-based, human. Here is the method: The vitamin D activity of the synthesized lithocholic acid amide derivatives was evaluated in terms of cell differentiation-inducing activity toward human acute promyelocytic leukemia cell line HL-60 [12]. HL-60 cell differentiation was evaluated in terms of the ratio of nitroblue tetrazolium (NBT)-positive cells (Figure 3 and Table 1).
Control cells were treated with the same volume of ethanol alone. 1α,25(OH)2D3 was always assayed at the same time as a positive control. The cells were incubated at 37 °C under 5% CO2 in air for 4 days. The percentage of differentiated cells was determined by nitro-blue tetrazolium (NBT) reduction assay. […] The percentage of cells containing blue-black formazan was determined in a minimum of 200 cells. All experiments were done in triplicate.

For a further series, the target named is T1, VDR (Homo sapiens, UniProt P11473).
T1 construct: expressed in transfected cells; host or cells: HEK293
T1 sequence (P11473 1-427): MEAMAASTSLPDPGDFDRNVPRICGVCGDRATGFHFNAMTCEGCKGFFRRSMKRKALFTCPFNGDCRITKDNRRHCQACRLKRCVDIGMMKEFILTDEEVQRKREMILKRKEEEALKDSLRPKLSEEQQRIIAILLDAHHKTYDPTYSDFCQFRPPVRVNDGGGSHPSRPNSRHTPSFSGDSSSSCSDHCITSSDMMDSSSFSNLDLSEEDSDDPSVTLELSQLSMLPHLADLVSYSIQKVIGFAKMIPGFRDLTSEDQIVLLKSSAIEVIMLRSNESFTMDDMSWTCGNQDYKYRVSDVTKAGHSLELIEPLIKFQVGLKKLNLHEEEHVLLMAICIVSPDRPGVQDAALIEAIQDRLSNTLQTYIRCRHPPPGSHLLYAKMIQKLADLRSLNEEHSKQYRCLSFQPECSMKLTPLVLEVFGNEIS
Put plainly: VDR transactivation assay (luciferase reporter) in HEK293 cells. Format: cell-based. The procedure:
Human embryonic kidney HEK293 cells (RIKEN Cell Bank, Tsukuba, Japan) were cultured in Dulbecco’s modified Eagle’s medium containing 5% FBS, 100 U/mL penicillin, and 0.1 mg/mL streptomycin (Nacalai Tesque, Kyoto, Japan). Transfections used 15 ng of pCMX-hVDR, 50 ng of TK-Spp × 3-LUC reporter plasmid, and 10 ng of pCMX-β-galactosidase for each well of a 96-well plate, and were performed by the calcium phosphate coprecipitation assay as described previously. Eight hours after transfection, test compounds were added. Cells were harvested after 16–24 h and were assayed for luciferase and β-galactosidase activity using a luminometer and a microplate reader (Molecular Devices, Sunnyvale, CA, USA). Luciferase data were normalized to the internal β-galactosidase control. All experiments were done in triplicate.

The nature of series [1]: preliminary pharmacokinetics in mice (data not shown). In kind it is in vivo. The note with it: preliminary results.
Details of series [2]: method as in PMID 33853023. The settings on record: cited from earlier work.
The target of series [3] is T2, rat VDR LBD (residues 116–423, Δ165–211) (rat, UniProt P13053 116-423, Δ165–211).
T2 construct: Cloned in pET14b; tag removed by thrombin digestion; also called rVDR LBD; source: Escherichia coli C41, purified (Ni-NTA, SP-Sepharose, thrombin digestion, gel filtration); not shown: His6, N-terminal, cleaved
T2 sequence (looked up): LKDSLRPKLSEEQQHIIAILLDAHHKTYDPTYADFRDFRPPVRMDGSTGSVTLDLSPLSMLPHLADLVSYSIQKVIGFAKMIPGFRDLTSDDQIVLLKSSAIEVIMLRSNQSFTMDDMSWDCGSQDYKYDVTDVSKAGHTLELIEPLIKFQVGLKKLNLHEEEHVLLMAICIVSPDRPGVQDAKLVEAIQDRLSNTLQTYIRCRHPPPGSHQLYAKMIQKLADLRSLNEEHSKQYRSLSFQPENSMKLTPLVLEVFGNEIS
In words: crystal structure; VDR LBD with about 10 equiv of ligand 7b and coactivator peptide (25 mM Tris-HCl, pH 8.0; 50 mM NaCl; 10 mM DTT; 0.02% NaN3); vapor diffusion, 0.2 M potassium citrate tribasic monohydrate, 20% (w/v) PEG3350, 20 °C; 1.94 Å. The note with it: both partners purified.

Where [4] appears, read: ratio of NBT-positive cells, 4 days incubation, 'Inactive' = no or week active at the concentrations below 1 μM.
[5] abbreviates: HEK293 cells transfected with pCMX-hVDR and TK-Spp×3-LUC reporter, 'Inactive' = no or week active at the concentrations below 1 μM.

In general, EC50 refers to the concentration that produces a half-maximal response. For `C[C@H](CCC(N)=O)[C@H]1CC[C@H]2[C@@H]3CC[C@@H]4C[C@H](CC(C)(C)O)CC[C@]4(C)[C@H]3CC[C@]12C` [Compound 4a], the EC50 with HL-60 cells (setting [4]) turned out to be 0.44 nM; on VDR (setting [5]), 0.12 nM. On to `C[C@H](CCC(=O)O)[C@H]1CC[C@H]2[C@@H]3CC[C@@H]4C[C@H](O)CC[C@]4(C)[C@H]3CC[C@]12C` [LCA (2), Lithocholic acid], for which, in the series with HL-60 cells (setting [4]), the “HL-60 Assay EC50” value was “Inactive ^a”. For the same molecule, the “Transactivation Assay EC50” value on VDR (setting [5]) is listed as “Inactive ^a”. Moreover, on VDR (HEK293 cells, LCA: at the concentration below 1 μM), the “VDR transactivation activity (in words)” value is recorded as “did not show the activity”. Consider `CNC(=O)CC[C@@H](C)[C@H]1CC[C@H]2[C@@H]3CC[C@@H]4C[C@H](CC(C)(C)O)CC[C@]4(C)[C@H]3CC[C@]12C` [Compound 4b], for which the “HL-60 Assay EC50” value with HL-60 cells (setting [4]) is “Inactive ^a”. The molecule also showed an EC50 on VDR (setting [5]) of 0.96 nM.

As to `C[C@H](CCC(=O)NC#N)[C@H]1CC[C@H]2[C@@H]3CC[C@@H]4C[C@H](CC(C)(C)O)CC[C@]4(C)[C@H]3CC[C@]12C` [Compound 6], the results for the EC50 with HL-60 cells (setting [4]) and at VDR (setting [5]) were 0.32 nM and 0.1 nM, respectively. The matching figures for `CONC(=O)CC[C@@H](C)[C@H]1CC[C@H]2[C@@H]3CC[C@@H]4C[C@H](CC(C)(C)O)CC[C@]4(C)[C@H]3CC[C@]12C` [Compound 5b]: 1.45 nM and 0.14 nM. The corresponding values for `C[C@H](CCC(=O)NCCC(=O)O)[C@H]1CC[C@H]2[C@@H]3CC[C@@H]4C[C@H](CC(C)(C)O)CC[C@]4(C)[C@H]3CC[C@]12C` [Compound 7b] are 0.45 nM and 0.89 nM.

Take `C[C@H](CCC(=O)O)[C@H]1CC[C@H]2[C@@H]3CC[C@@H]4C[C@H](CC(C)(C)O)CC[C@]4(C)[C@H]3CC[C@]12C` [Compound 3]: the EC50 in the series with HL-60 cells (setting [4]) was found to be 1.01 nM; at VDR (setting [5]), 0.083 nM. Further, the “elimination from the serum” value in series [1] is on record as “eliminated very quickly”. The “calcemic activity compared with 1α,25(OH)2D3 (1)” value in series [2] is reported as “lower calcemic activity than 1”; in series [2] (listed as 3 (Dcha-20)), “lower calcemic activity”. Consider `C[C@H](CCC(=O)NCC(=O)O)[C@H]1CC[C@H]2[C@@H]3CC[C@@H]4C[C@H](CC(C)(C)O)CC[C@]4(C)[C@H]3CC[C@]12C` [Compound 7a], for which the EC50 in the series with HL-60 cells (setting [4]) is 2.03 nM. `C[C@H](CCC(=O)NCCCC(=O)O)[C@H]1CC[C@H]2[C@@H]3CC[C@@H]4C[C@H](CC(C)(C)O)CC[C@]4(C)[C@H]3CC[C@]12C` [Compound 7c]: the results for the EC50 in the series with HL-60 cells (setting [4]) and at VDR (setting [5]) were 0.64 nM and 0.081 nM, respectively. With `C=C1/C(=C\C=C2/CCC[C@]3(C)[C@@H]([C@H](C)CCCC(C)(C)O)CC[C@@H]23)C[C@@H](O)C[C@@H]1O` [1α,25(OH)2D3 (1), 1α,25-Dihydroxyvitamin D3, reference compound], in the series on HL-60 cells, the EC50 was determined as 0.74 nM.

With `C[C@H](CCC(=O)NO)[C@H]1CC[C@H]2[C@@H]3CC[C@@H]4C[C@H](CC(C)(C)O)CC[C@]4(C)[C@H]3CC[C@]12C` [Compound 5a], the EC50 with HL-60 cells (setting [4]) was found to be 1.18 nM; on VDR (setting [5]), 0.14 nM. Consider `C[C@H](CCC(=O)NCCS(=O)(=O)O)[C@H]1CC[C@H]2[C@@H]3CC[C@@H]4C[C@H](CC(C)(C)O)CC[C@]4(C)[C@H]3CC[C@]12C` [Compound 8b], for which the EC50 in the series with HL-60 cells (setting [4]) was found to be 6.56 nM. Still for that read-out and setting: with `C[C@H](CCC(=O)NCS(=O)(=O)O)[C@H]1CC[C@H]2[C@@H]3CC[C@@H]4C[C@H](CC(C)(C)O)CC[C@]4(C)[C@H]3CC[C@]12C` [Compound 8a] the figure was 18.5 nM.

B1: coactivator peptide (H2N-KNHPMLMNLLKDN-CONH2) derived from DRIP205 (peptide)
peptide: H-KNHPMLMNLLKDN-NH2
notes: also called MED1 peptide; source: synthetic peptide
Take B1: the binding result in series [3] was “binds”.
